Results: patent publication US20140140991A1, “METHODS OF TREATING A DISEASE OR DISORDER ASSOCIATED WITH BRUTON'S TYROSINE KINASE” (Celgene Avilomics Research, Inc., priority 2012, published 2014)

Experiments:
[1] = Safety and pharmacokinetics, single dose studies in healthy subjects; assay type: in vivo, human
[2] = Environmental stability (heat, acid, base); assay type: physicochemical
[3] = physchem; details: pH 3, aqueous buffer
[4] = target: Syk (Homo sapiens, UniProt P43405); details: DLBCL, CLL, and mantle cell lymphoma; cited from earlier work

In the case of C=CC(=O)Nc1cccc(Nc2nc(Nc3ccc(OCCOC)cc3)ncc2F)c1 [Compound 1, N-(3-(5-fluoro-2-(4-(2-methoxyethoxy)phenylamino)pyrimidin-4-ylamino)phenyl)acrylamide], the “pharmacokinetics (PK)” value [1] is reported as “predictable pharmacokinetics” and the safety [1] is reported as “adequate safety”.

With C=CC(=O)Nc1cccc(Nc2nc(Nc3ccc(OCCOC)cc3)ncc2F)c1.O=S(=O)(O)c1ccccc1 [N-(3-(5-fluoro-2-(4-(2-methoxyethoxy)phenylamino)pyrimidin-4-ylamino)phenyl)acrylamide benzenesulfonic acid salt] the “environmental instabilities (i.e. heat, acid, base) that require special handling” value [2] was “no environmental instabilities” and the solubility [3] was 400 µg/mL.

For COc1cc(Nc2ncc(F)c(Nc3ccc4c(n3)N(COP(=O)(O)O)C(=O)C(C)(C)O4)n2)cc(OC)c1OC [fostamatinib disodium], the clinical responses [4] is given as “produced clinical responses”.
